# Laboratory results as given in patent US20020107209A1, “Triterpene saponins from soybeans for treating kidney disease” (priority 2000, published 2002).
# Columns and labels:
# [1] = test system: rodent models of polycystic kidney disease (PKD); assay: Casein-based diet supplemented with crude saponin-enriched alcohol extract (SEAE), ginseng, genistein or L-arginine; earlier experiment; type: in vivo, mice; conditions: supplementation of the casein-based diet
# Excerpt: These beneficial effects appeared unique to the saponins derived from soybeans as supplementation of the casein-based diet with (1) ginseng (also a saponin), (2) genistein, (an isoflavone naturally present in SPI) or (3) addition of the amino acid L-arginine to the casein to mimic the amino acid composition to that of the SPI had no effect on disease progression.
# The major component of the SEAE was identified as soyasaponin Bb with smaller amounts of two or three unidentified saponins and trace amounts of genistein and daidzen, two naturally occurring isoflavones in soy protein. The inventors determined that the Group B soybean-derived saponins (soyasaponins), especially soyasaponin Bb, was an important contributor to the attenuation of cyst growth.
# [2] = test system: pcy mouse model of PKD; assay: 90-day feeding trial in pcy mice: casein-based diet supplemented with Novasoy 400 or soyasaponin Bb concentrate; type: in vivo; conditions: for effect on attenuation of kidney size and cyst development: pcy mouse model of PKD, summary in words
# Method: Experiments were conducted with a purified soyasaponin Bb concentrate for a feeding trial in the pcy mice.
# The feeding trial, which followed the acquisition of this soyasaponin Bb concentrate, explored the possibility that this concentrate was an important contributor to the attenuation of disease progression in the pcy mouse. The protocol used in this trial involved the random assignment of young, male pcy mice to one of three dietary treatments and feeding these diets for 90 days, the usual time frame in these studies. The diets used in this feeding trial were:1) an unsupplemented casein-based diet, known to increase the severity of the renal cystic disease; 2) this casein-based diet supplemented with Novasoy 400®, a new, isoflavone-enhanced product containing low levels of the soyasaponins (ADM, Decatur, Ill.) or 3) the casein-based diet supplemented with the purified soyasaponin Bb concentrate prepared by Drs. Collins and Sarr.
# After three months the mice were humanely euthanized and the kidney and liver tissues removed and stored at −80 degrees Celsius until measurements of tissue water content and cell volume could be taken. Organ water content was determined in the kidney and liver by measuring the difference between the wet weight of the tissue and its subsequent weight after freeze-drying. Plasma, obtained by centrifugation of the cardiac blood, was used for standard measurements of renal function, including total protein, urea, and creatinine concentrations. Soy protein fractions enriched in the soyasaponins are reportedly hypocholesterolemic when fed to hamsters (Gatchalian-Yee M. et al. Nutrition. 13:633-639,1997) and plasma cholesterol levels were also measured in the present experiment whenever the sample volume was adequate. Differences between treatment effects were assessed by a one-way ANOVA and the significance of these differences between means obtained by the Tukey's Honestly Significant Different Test.
# [3] = pcy mice, 90 days, plasma from cardiac blood, mean ± SEM
# [4] = pcy mice, 90 days, versus casein
# [5] = pcy mice, 90 days, versus unsupplemented casein diet
# [6] = pcy mice, diet fed 90 days, mean ± SEM
# [7] = pcy mice, diet fed 90 days, mean ± SEM, 8 animals/group
Structure (SMILES),effect on disease progression [1],"daily food intake ([2]; pcy mice, 90-day feeding trial) [g/day]","Plasma cholesterol [2, 3] [mM/L]","Plasma creatinine [2, 3] [µM]","Plasma total protein [2, 3] [g/L]","Plasma urea [2, 3] [mM/L]","absolute and relative kidney weight and kidney water content [2, 4]","relative liver weight [2, 4]","plasma cholesterol levels [2, 5]","plasma creatinine levels [2, 5]","Kidney water content (g/left kidney) ([2]; pcy mice, 90 days, wet weight minus freeze-dried weight, mean ± SEM)","Final body wt [2, 6] [g]","Liver water content [2, 6] [g]","Liver wt [2, 6] [g]","Liver wt (g/100 g body wt) [2, 6] [g/100 g body wt]","Total kidney wt [2, 7] [g]","Total kidney wt (g/100 g body wt) [2, 7] [g/100 g body wt]",effect on attenuation of kidney size and cyst development [2],effect on attenuation of kidney size and cyst development ([2]; listed as soyasaponin Bb concentrate)
N=C(N)NCCC[C@H](N)C(=O)O [L-arginine],no effect,–,–,–,–,–,–,–,–,–,–,–,–,–,–,–,–,–,–
O=c1c(-c2ccc(O)cc2)coc2cc(O)cc(O)c12 [genistein],no effect,–,–,–,–,–,–,–,–,–,–,–,–,–,–,–,–,–,–
"C[C@@H]1O[C@@H](O[C@H]2[C@H](O[C@H]3[C@H](O[C@H]4CC[C@@]5(C)[C@@H](CC[C@]6(C)[C@@H]5CC=C5[C@@H]7CC(C)(C)C[C@@H](O)[C@]7(C)CC[C@]56C)[C@@]4(C)CO)O[C@H](C(=O)O)[C@@H](O)[C@@H]3O)O[C@H](CO)[C@H](O)[C@@H]2O)[C@H](O)[C@H](O)[C@H]1O [soyasaponin Bb, 3-O-(α-L-rhamnosyl-1→2-β-D-galactosyl-1→2-β-D-glucuronosyl)-soyasapogenol B]",–,3.3 ± 0.0,4.8 ± 0.3,17.5 ± 1.9,54.3 ± 1.1,19.5 ± 3.0,marked reduction,not observed,lesser hypocholesterolemic effect,markedly reduced,0.61 ± 0.1,25.1 ± 0.1,0.82 ± 0.0,1.2 ± 0.2,4.6 ± 0.1,1.3 ± 0.1,5.2 ± 0.3,important beneficial effect,marked beneficial effect
